Source: patent US20180369186A1, “METHOD FOR MODULATING AUTOPHAGY AND APPLICATIONS THEREOF” (JAWAHARLAL NEHRU CENTRE FOR ADVANCED SCIENTIFIC RESEARCH, priority 2015, published 2018)

Assays:
[1] = tested on: α-synuclein-EGFP; test: α-synuclein-EGFP degradation assay in yeast; assay type: cell-based, S. cerevisiae; conditions: 50 μM
Description: Subsequent degradation of α-synuclein-EGFP levels are analyzed using immunoblotting (FIG. 9A).
Yeast cultures after respective treatments are washed, mounted on agarose (2%) pad and imaged. Images are acquired using DeltaVision Elite widefield microscope (API, GE) with following filters: DAPI (390/18 and 435/48), FITC (490/20 and 529/38), TRITC (542/27 and 594/45) and Cy5 (632/22 and 676/34). Images are processed using DV SoftWoRX software. Autophagosome (yellow) and autolysosome (red) are counted using Cell Counter plug-in in imager software (NIH) and graphically represented as fold difference versus untreated (FIGS. 4A, B, C and D).
After inducing α-synuclein-EGFP aggregates in the corresponding yeast strains driven by galactose promoter, the protein expression is turned off by adding dextrose in the medium. Then, α-synuclein-EGFP aggregates degradation by XCT 790 are assessed by collecting cells treated with and without XCT 790 (50 μM) for 0 and 24 h. Subsequently, the protein levels are analyzed using immunoblotting.
The appropriate yeast strains (A600=3) are mixed in trichloroacetic acid (12.5%) and then stored at −80° C. Then, the samples are thawed on ice, centrifuged (16000×g, 15 min) and the pellets are washed twice with ice-cold acetone (80%). Pellets are air dried, resuspended in lysis solution (0.1 N NaOH and 1% SDS) and Laemmli buffer and boiled for 15 min.
After respective treatments, the yeast cultures were washed, seeded on agarose (2%) pad and then imaged.

[2] = tested on: HeLa cells (autophagosomes and autolysosomes); test: Tandem RFP-GFP-LC3B (traffic light) assay in HeLa cells; assay type: cell-based, human
Description: Transfection is done on a 60 mm dish with HeLa cells at 60-70% confluency. Cells were transfected with tandem RFP-GFP-MAP1LC3B construct (Addgene plasmid #21074) using 5 μl of Lipofectamine 2000 (11668-019, Invitrogen) and 2.5 μg of DNA (2:1 ratio) diluted in 100 μl of OPTI-MEM (31985-070, Invitrogen) separately. 72 hours after transfection cells are either left untreated or treatment with various concentrations of Bay11-7082 ZPCK is done for 2 hours. Starvation is induced by treating cells with Earle's balanced salt solution (EBBS). After treatment, cells are fixed in 4% paraformaldehyde and permeabilized using 0.25% Triton X-100, The coverslip is mounted with […] antifade reagent (H-1000, Vector laboratories). Imaging for HeLa cells is carried out using Delta vision microscope (Olympus 60×/1.4, Plan ApoN, excitation and emission filter Cy5, FITC and TRITC, polychroic Quad).
For tandem RFP-EGFP-LC3 assay, sub-confluent cells are seeded in 60 mm dishes, transfected with ptf LC3 construct and allowed to express for 24 h. Later, cells are trypsinized, reseeded (10^5 cells) and allowed to attach on cover slips in a 12 well plate.
For mammalian cell microscopy, after 2 h of treatment, coverslips are fixed using 4% paraformaldehyde (PFA) (Sigma) and permeabilized using Triton X-100 (0.2%, HiMedia). Coverslips are mounted using antifade, Vectashield (Vector laboratories). For antibody staining, coverslips are blocked in 5% BSA for 1 h, incubated in primary antibody overnight and subsequent probing with fluorescent conjugated antibody. Coverslips are mounted using antifade, Vectashield (Vector laboratories).
Images are acquired using DeltaVisionElitewidefield microscope (API, GE) with following filters: DAPI (390/18 and 435/48), FITC (490/20 and 529/38), TRITC (542/27 and 594/45) and Cy5 (632/22 and 676/34). Images are processed using DV SoftWoRX software. Autophagosome (yellow) and autolysosome (red) are counted using Cell Counter plug-in in ImageJ software (NIH) and graphically represented as fold difference versus untreated (FIG. 3E).
Sub-confluent HeLa and/or SH-SY5Y cells are seeded into 60 mm cell culture dishes, then transfected with ptf LC3 construct and/or siRNA and allowed to express for 48 h. Cells are trypsinized, seeded again on poly-D-lysine coated cover slips in a 12 or 24 well plates and allowed to attach. After appropriate treatments, the coverslips containing cells are processed for imaging. For immunofluorescent antibody staining, the cover slips are incubated in primary antibody at 4° C. for overnight followed by secondary antibody incubation at room temperature.
For imaging the mammalian cells, after appropriate treatments, coverslips containing cells are fixed using 4% paraformaldehyde (PFA) (Sigma) and then permeabilized using Triton X-100 (0.2%, HiMedia). On slide, coverslips are mounted using antifade, Vectashield mounting medium (Vector laboratories). For antibody staining, coverslips are blocked using 5% BSA for 1 h at room temperature, then incubated with primary antibody at 4° C., overnight and then subsequently probed with corresponding fluorescent dye conjugated secondary antibody.

[3] = tested on: DAergic neurons in SNpc; test: MPTP mouse model: LC3 and A11 puncta in DAergic neurons of SNpc; assay type: in vivo
Description: The sequential immunolabeling procedure is used to co-label the TH and LC3 and/or A11. First, the midbrain sections are equilibrated with 0.1 M PBS (pH 7.4) for 10 min and then incubated with buffered bovine serum albumin (3%) for 4 h to block non-specific epitopes. Then, the sections are incubated in rabbit anti-LC3 antibody (1:1000) and/or anti-oligomer antibody (A11, 1:1000) for 72 h at 4° C. After subsequent washes, the sections are incubated in corresponding fluorescent secondary antibody (1:200) at 4° C., overnight.
Co-labeling with TH is performed on the same sections using rabbit anti-TH antibody (1:500), followed by secondary labeling. PBST (0.01 M, pH 7.4) is used as both working and washing buffer. Sections are then mounted using Vectashield hardset mounting medium.

[4] = 5 mg/kg, co-administered with MPTP
[5] = HeLa, 2 h, 2.5 μM Bay11, 25 μM ZPCK
[6] = HeLa, ERRα Flag transfected 48 h, 5 μM, 2 h

SMILES | α-synuclein-EGFP clearance in autophagy mutant atg1Δ ([1]; atg1Δ) | α-synuclein-EGFP levels in wild type cells ([1]; non-starvation and starvation, 0, 6, 12 and 24 h) | fusion between autophagosomes and lysosomes at 16° C. ([2]; HeLa, 16° C. (endocytosis reduced), control vs treated) | fusion between autophagosomes and lysosomes at 37° C. ([2]; HeLa, 37° C., control vs treated) | autolysosomes in GSK3B silenced cells vs only treated cells ([2]; shRNA GSK3B silenced cells) | LC3B puncta per neuron, MPTP vs MPTP+Co ([3]; 5 mg/kg, co administered with MPTP) | reduction in A11 positive toxic aggregates, MPTP vs MPTP+Co [3, 4] | p-GSK3B signals in DAergic neurons ([3]; 6-Bio only and MPTP+Co cohorts) | number of autolysosomes (mRFP+/GFP− puncta) [2, 5] | number of autophagosomes (mRFP+/GFP+ puncta) [2, 5] | step of action relative to Bafilomycin A1 (BFA) ([2]; HeLa, with Bafilomycin A1 (400 nM)) | clearance of α-synuclein-EGFP in wild-type strain ([1]; 24 h, untreated vs treated) | vacuolar free EGFP (vacuolar degradation of α-synuclein-EGFP) ([1]; microscopy, WT α-synuclein-EGFP, untreated vs treated) | autolysosome numbers, fold vs control ([2]; HeLa, 5 μM, 2 h) | autophagosomes, fold vs control ([2]; HeLa, 5 μM, 2 h) | less autolysosomes in ERRα over expressed cells, vs untreated [2, 6] | more autophagosomes in ERRα over expressed cells, vs untreated [2, 6] | LC3 puncta per neuron, compound only vs placebo/vehicle ([3]; 5 mg/kg of body weight, compound only cohort) | aggregates in compound only cohort vs vehicle ([3]; 5 mg/kg, XCT 790 only) | LC3 puncta per cell, vehicle vs MPTP+Co [3, 4]
O=C1Nc2cc(Br)ccc2/C1=C1/Nc2ccccc2/C1=N\O [6-Bio, (2′Z,3′E)-6-Bromoindirubin-3′-oxime] | not in an autophagy mutant | time-dependent and significant decrease | ~8 fold | ~10 fold | significantly reduced | ~2,5 fold | ~7 fold | Reduced p-GSK3B signals | – | – | – | – | – | – | – | – | – | – | – | –
Cc1ccc(S(=O)(=O)/C=C/C#N)cc1 [Bay11, 3-[(4-methylphenyl)sulfonyl]-(2E)-propenenitrile] | – | – | – | – | – | – | – | – | decreased | decreased the number of autophagosomes | step prior to BFA action | – | – | – | – | – | – | – | – | –
COc1cc(C=C(C#N)C(=O)Nc2nnc(C(F)(F)F)s2)ccc1OCc1ccc(C(F)(F)F)cc1C(F)(F)F [XCT 790, 3-[4-(2,4-Bis-trifluoromethylbenzyloxy)-3-methoxyphenyl]-2-cyano-N-(5-trifluoromethyl-1,3,4-thiadiazol-2-yl)acrylamide] | – | – | – | – | – | – | ~6 fold | – | – | – | – | ~2.5 fold | ~14 fold | ~2 fold | ~5 fold | ~2 fold | ~2 fold | ~3 fold | comparable to that of vehicle cohort | ~3 fold
